pIC50: −log10 of the molar value. Active and inactive are the calls of the source. The rule behind the calls is not given here.
Experiments:
[1] = Volume of distribution at steady state in monkey at 1 mg/kg, iv by UPLC-MS analysis; type: ADME, organism-based, Macaca mulatta; conditions: rhesus monkey, in vivo, read-out: Vdss
Cytochrome P450 2C19 = Cytochrome P450 2C19 (Homo sapiens, UniProt P33261); experiment: Inhibition of CYP2C19 in human liver microsomes up to 50 uM using S-mephenytoin as substrate measured after 20 mins in presence of NADPH by LC-MS/MS analysis; type: ADME
[2] = Cmax in patient with advanced solid tumor at 40 mg, po administered once daily measured on day 15; type: ADME, organism-based; parameters: dose 40 mg, route oral; conditions: human, in vivo
[3] = target: Serine/threonine-protein kinase STK11 (Homo sapiens) (UniProt Q15831); experiment: Activity at human LKB1 at 10 uM
[4] = Cmax in patient with advanced solid tumor at 120 mg, po administered once daily measured on day 15; type: ADME, organism-based; parameters: dose 120 mg, route oral; conditions: human, in vivo
[5] = target: Voltage-gated inwardly rectifying potassium channel KCNH2 (Homo sapiens, UniProt Q12809); experiment: Inhibition of human ERG expressed in mammalian expression system by Q-patch clamp electrophysiology method
[6] = target: Platelet-activating factor receptor (Homo sapiens) (UniProt P25105); experiment: Activity at human PAF receptor at 10 uM
Mus musculus = experiment: In vivo inhibition of HIF-2alpha in SCID Beige mouse xenografted with human 786-O cells assessed as reduction in cyclin D1 mRNA expression administered twice daily via oral gavage for 3 days measured 12 hrs post-last dose by qRT-PCR analysis; type: functional, organism-based
[7] = AUClast in patient with advanced solid tumor at 120 mg, po administered once daily measured on day 15; type: ADME, organism-based; parameters: dose 120 mg, route oral, time 0 - last; conditions: human, in vivo
[8] = Half life in CD-1 mouse at 3 mg/kg, iv by UPLC-MS analysis; type: ADME, organism-based; conditions: in vivo
[9] = target: Cyclin-dependent kinase 5/CDK5 activator 1 (Homo sapiens) (UniProt Q00535+Q15078); experiment: Activity at human CDK5/p35 at 10 uM; type: protein-complex assay
[10] = target: Alpha-1D adrenergic receptor (Homo sapiens) (UniProt P25100); experiment: Activity at human alpha1D receptor at 10 uM
[11] = Half life in patient with advanced solid tumor at 80 mg, po administered once daily measured on day 15; type: ADME, organism-based; conditions: human, in vivo
[12] = target: Serine/threonine-protein kinase D1 (Homo sapiens) (UniProt Q15139); experiment: Activity at human PKCmu at 10 uM
Cytochrome P450 3A4 [13] = target: T1, Cytochrome P450 3A4 (Homo sapiens, UniProt P08684); experiment: Inhibition of CYP3A4 in human liver microsomes up to 50 uM using midazolam as substrate measured after 10 mins in presence of NADPH by LC-MS/MS analysis; type: ADME
[14] = target: Calcium/calmodulin-dependent protein kinase type II subunit beta (Homo sapiens) (UniProt Q13554); experiment: Activity at human CAMK2B at 10 uM
Cytochrome P450 3A4 [15] = target: T1, Cytochrome P450 3A4; experiment: Inhibition of CYP3A4 in human liver microsomes up to 50 uM using testosterone as substrate measured after 10 mins in presence of NADPH by LC-MS/MS analysis; type: ADME
[16] = target: Protein kinase C iota type (Homo sapiens) (UniProt P41743); experiment: Activity at human PKCiota at 10 uM
[17] = target: CDK7/Cyclin H/MNAT1 (Homo sapiens) (UniProt P51946+P50613+P51948); experiment: Activity at human CDK7/cyclinH/MAT1 at 10 uM; type: protein-complex assay
[18] = target: Leukotriene B4 receptor 1 (Homo sapiens) (UniProt Q15722); experiment: Activity at human BLT1 receptor at 10 uM
[19] = Half life in patient with advanced solid tumor at 160 mg, po administered once daily measured on day 15; type: ADME, organism-based; conditions: human, in vivo
[20] = Dose normalized AUClast in Beagle dog at 5 mg/kg, po administered via gavage by UPLC-MS analysis; type: ADME, organism-based, Canis lupus familiaris; conditions: in vivo
[21] = target: Cyclin-dependent kinase 2/cyclin E1 (Homo sapiens) (UniProt P24864+P24941); experiment: Activity at human CDK2/cyclinE at 10 uM; type: protein-complex assay
Homo sapiens = species: Homo sapiens; experiment: Activity at human BB2 receptor at 10 uM
[22] = target: Thyrotropin receptor (Homo sapiens) (UniProt P16473); experiment: Activity at human TSH at 10 uM
[23] = target: T2, UDP-glucuronosyltransferase 2B17 (Homo sapiens, UniProt O75795); experiment: Substrate activity at UGT2B17 in human intestinal microsomes assessed as enzyme-mediated glucuronidation by measuring Vmax per mg protein at 2 to 1000 uM preincubated for 5 mins followed by UDPGA addition and measured after 60 mins by LC-MS/MS analysis; type: ADME, Intestine; conditions: 1 h
T2 sequence (O75795 whole entry): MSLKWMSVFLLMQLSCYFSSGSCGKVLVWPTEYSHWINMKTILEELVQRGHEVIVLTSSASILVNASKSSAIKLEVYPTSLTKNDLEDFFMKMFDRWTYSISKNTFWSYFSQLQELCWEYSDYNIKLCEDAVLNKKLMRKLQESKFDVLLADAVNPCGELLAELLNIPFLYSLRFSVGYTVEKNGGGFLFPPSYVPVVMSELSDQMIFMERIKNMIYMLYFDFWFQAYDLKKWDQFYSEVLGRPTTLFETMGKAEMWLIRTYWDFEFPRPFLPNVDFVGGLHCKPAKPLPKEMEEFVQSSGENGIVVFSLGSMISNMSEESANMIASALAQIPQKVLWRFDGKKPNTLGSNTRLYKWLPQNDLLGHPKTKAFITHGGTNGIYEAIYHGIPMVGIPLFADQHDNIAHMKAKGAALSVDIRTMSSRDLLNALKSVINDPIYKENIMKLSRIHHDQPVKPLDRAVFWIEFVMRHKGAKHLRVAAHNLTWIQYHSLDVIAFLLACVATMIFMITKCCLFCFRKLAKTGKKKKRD

[24] = target: fMet-Leu-Phe receptor (Homo sapiens) (UniProt P21462); experiment: Activity at human FPR1 receptor at 10 uM
[25] = Lipophilicity, log D of the compound at pH 7.4; type: physicochemical; conditions: buffer
[26] = target: Protein kinase C epsilon type (Homo sapiens) (UniProt Q02156); experiment: Activity at human PKCepsilon at 10 uM
[27] = target: Ribosomal protein S6 kinase beta-1 (Homo sapiens) (UniProt P23443); experiment: Activity at human p70S6K at 10 uM
[28] = AUClast in patient with advanced solid tumor at 40 mg, po administered once daily measured on day 15; type: ADME, organism-based; parameters: dose 40 mg, time 0 - last, route oral; conditions: human, in vivo
[29] = target: Phosphorylase b kinase gamma catalytic chain, liver/testis isoform (Homo sapiens) (UniProt P15735); experiment: Activity at human PhKgamma2 at 10 uM
[30] = Half life in patient with advanced solid tumor at 20 mg, po administered once daily measured on day 15; type: ADME, organism-based; conditions: human, in vivo
Cytochrome P450 2C8 = Cytochrome P450 2C8 (Homo sapiens, UniProt P10632); experiment: Inhibition of CYP2C8 in human liver microsomes up to 50 uM using amodiaquine as substrate measured after 10 mins in presence of NADPH by LC-MS/MS analysis; type: ADME
[31] = target: Type-1 angiotensin II receptor (Homo sapiens) (UniProt P30556); experiment: Activity at human AT1 receptor at 10 uM
[32] = Clearance in Beagle dog at 1 mg/kg, iv by UPLC-MS analysis; type: ADME, organism-based, Canis lupus familiaris; conditions: in vivo

T1 sequence (P08684 whole entry): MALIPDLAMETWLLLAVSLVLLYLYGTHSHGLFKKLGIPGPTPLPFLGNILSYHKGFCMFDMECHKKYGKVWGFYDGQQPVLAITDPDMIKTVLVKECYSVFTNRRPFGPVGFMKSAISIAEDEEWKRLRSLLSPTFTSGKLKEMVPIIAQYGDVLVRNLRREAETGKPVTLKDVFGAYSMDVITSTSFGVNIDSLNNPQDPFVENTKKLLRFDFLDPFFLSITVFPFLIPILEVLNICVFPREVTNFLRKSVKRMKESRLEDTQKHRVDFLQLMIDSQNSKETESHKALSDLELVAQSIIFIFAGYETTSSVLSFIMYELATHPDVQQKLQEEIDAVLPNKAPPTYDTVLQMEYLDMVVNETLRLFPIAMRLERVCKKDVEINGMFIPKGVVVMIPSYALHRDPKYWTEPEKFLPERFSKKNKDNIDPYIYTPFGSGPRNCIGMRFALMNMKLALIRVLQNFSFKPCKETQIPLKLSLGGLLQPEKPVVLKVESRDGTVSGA
Cyclin-dependent kinase 5/CDK5 activator 1 (Homo sapiens), sequence (Q00535 whole entry): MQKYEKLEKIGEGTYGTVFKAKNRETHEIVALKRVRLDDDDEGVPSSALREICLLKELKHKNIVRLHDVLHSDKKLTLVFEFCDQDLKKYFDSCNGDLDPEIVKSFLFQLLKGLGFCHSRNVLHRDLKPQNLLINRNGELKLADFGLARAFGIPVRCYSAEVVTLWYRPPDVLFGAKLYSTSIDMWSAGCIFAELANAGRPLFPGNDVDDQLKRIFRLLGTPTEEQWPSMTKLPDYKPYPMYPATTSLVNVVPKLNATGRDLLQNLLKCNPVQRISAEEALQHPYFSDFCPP
Cyclin-dependent kinase 5/CDK5 activator 1 (Homo sapiens), sequence (Q15078 99-307 partner limits assumed): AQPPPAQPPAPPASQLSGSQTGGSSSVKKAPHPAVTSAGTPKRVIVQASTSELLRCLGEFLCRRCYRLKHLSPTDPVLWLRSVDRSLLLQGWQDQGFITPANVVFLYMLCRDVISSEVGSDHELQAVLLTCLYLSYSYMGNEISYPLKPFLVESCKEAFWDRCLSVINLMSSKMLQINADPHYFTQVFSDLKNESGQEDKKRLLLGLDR
Cytochrome P450 2C8, sequence (P10632 whole entry): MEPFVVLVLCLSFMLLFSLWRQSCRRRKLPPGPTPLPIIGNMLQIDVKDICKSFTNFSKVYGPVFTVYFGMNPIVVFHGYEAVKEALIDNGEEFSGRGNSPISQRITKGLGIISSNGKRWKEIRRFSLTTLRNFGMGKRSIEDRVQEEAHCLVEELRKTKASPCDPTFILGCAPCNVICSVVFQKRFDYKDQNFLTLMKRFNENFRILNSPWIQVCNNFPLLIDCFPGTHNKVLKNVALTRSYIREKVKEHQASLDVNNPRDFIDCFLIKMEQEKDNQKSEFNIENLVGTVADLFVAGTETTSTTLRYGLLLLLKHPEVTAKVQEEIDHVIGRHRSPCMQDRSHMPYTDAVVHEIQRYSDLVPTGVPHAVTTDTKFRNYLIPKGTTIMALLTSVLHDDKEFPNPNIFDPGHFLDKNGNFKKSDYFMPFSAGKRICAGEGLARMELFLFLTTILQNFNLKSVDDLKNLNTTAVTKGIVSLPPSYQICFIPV
Type-1 angiotensin II receptor (Homo sapiens), sequence (P30556 whole entry): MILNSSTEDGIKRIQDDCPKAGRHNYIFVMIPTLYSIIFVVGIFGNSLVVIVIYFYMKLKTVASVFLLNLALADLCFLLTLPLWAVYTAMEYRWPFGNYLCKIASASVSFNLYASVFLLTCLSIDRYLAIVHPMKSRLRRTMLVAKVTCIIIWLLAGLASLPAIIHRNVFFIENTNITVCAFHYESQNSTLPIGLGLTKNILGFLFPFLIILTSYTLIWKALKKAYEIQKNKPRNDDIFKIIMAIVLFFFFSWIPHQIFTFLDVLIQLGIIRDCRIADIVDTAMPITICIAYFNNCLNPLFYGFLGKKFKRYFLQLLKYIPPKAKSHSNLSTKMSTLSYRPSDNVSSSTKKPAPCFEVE
Calcium/calmodulin-dependent protein kinase type II subunit beta (Homo sapiens), sequence (Q13554 whole entry): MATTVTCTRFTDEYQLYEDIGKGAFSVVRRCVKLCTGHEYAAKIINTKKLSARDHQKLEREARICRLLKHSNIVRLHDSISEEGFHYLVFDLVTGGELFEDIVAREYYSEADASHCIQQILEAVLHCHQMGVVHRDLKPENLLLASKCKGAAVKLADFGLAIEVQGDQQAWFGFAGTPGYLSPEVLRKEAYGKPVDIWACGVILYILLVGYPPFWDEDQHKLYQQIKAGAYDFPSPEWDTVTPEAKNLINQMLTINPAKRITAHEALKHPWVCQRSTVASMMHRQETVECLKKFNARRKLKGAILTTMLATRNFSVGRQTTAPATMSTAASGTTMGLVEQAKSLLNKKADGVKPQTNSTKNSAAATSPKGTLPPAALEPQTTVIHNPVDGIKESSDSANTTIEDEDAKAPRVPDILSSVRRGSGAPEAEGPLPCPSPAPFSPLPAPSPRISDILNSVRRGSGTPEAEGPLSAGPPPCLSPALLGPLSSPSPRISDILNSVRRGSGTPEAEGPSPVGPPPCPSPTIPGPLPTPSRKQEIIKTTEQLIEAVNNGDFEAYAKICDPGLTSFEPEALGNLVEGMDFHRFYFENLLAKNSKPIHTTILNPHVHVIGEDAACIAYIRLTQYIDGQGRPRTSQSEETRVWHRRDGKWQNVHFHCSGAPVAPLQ
Protein kinase C epsilon type (Homo sapiens), sequence (Q02156 whole entry): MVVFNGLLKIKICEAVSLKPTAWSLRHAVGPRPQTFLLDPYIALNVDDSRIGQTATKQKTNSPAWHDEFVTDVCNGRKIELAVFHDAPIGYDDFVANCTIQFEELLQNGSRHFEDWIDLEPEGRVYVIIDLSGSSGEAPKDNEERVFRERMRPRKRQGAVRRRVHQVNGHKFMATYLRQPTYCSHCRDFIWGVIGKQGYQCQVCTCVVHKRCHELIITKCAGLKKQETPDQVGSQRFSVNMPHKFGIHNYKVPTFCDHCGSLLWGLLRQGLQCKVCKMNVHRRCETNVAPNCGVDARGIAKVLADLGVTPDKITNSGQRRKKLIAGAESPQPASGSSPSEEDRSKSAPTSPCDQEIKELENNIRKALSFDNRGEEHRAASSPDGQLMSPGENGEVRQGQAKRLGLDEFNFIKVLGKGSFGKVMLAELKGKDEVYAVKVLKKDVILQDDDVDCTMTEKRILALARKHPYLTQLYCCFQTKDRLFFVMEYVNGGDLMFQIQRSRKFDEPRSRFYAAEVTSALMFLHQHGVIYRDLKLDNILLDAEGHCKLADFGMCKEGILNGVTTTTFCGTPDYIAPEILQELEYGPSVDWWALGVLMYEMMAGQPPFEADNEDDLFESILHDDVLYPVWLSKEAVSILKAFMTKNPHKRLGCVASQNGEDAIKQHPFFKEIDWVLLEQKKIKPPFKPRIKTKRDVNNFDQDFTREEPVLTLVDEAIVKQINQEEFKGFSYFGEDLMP
Serine/threonine-protein kinase STK11 (Homo sapiens), sequence (Q15831 whole entry): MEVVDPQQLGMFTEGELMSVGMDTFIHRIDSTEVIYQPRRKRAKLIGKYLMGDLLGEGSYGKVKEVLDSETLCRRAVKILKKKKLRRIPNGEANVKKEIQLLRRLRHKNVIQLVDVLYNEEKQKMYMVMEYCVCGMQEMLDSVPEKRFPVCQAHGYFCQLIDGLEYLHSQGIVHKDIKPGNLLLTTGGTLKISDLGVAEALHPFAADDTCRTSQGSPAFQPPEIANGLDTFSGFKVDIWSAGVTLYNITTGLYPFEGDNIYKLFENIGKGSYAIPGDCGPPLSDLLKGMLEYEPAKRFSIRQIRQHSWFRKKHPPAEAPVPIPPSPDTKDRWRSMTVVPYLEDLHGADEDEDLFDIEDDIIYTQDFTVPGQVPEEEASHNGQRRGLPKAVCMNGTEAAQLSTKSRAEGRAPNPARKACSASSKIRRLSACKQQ
Phosphorylase b kinase gamma catalytic chain, liver/testis isoform (Homo sapiens), sequence (P15735 whole entry, canonical isoform): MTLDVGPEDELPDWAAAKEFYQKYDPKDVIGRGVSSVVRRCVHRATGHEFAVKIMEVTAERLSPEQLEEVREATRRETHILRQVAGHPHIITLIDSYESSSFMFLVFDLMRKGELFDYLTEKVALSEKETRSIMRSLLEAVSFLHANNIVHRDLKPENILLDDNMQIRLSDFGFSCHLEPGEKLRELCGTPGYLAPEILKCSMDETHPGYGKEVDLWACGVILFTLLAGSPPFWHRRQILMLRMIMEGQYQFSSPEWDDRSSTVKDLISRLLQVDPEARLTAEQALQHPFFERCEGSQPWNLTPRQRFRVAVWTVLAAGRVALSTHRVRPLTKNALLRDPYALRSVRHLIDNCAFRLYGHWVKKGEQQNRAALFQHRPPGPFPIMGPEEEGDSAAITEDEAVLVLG
Thyrotropin receptor (Homo sapiens), sequence (P16473 whole entry, looked up): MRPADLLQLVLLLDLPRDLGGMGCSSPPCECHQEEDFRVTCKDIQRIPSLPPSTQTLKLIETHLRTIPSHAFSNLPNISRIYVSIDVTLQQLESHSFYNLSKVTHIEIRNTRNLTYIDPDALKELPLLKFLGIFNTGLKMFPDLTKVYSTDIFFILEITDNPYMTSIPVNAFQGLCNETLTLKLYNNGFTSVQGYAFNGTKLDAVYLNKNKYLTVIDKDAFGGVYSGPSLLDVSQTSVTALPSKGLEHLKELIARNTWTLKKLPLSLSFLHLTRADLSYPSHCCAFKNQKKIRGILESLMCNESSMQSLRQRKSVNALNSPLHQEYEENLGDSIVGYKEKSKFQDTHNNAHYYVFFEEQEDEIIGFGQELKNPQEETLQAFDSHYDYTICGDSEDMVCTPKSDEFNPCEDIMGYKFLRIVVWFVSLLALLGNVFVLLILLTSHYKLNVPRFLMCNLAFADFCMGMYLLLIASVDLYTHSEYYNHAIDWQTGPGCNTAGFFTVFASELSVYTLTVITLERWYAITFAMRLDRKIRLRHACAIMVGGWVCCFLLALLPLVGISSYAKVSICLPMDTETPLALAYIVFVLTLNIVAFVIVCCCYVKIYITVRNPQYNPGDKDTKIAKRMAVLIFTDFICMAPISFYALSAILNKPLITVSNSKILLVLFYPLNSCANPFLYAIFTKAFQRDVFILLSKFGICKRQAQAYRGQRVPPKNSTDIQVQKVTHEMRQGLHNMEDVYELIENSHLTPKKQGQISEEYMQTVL

In the case of `CS(=O)(=O)c1ccc(Oc2cc(F)cc(C#N)c2)c2c1[C@H](O)[C@H](F)[C@@H]2F` [BELZUTIFAN], the Vd [1] was 2.9 L/kg, the “inhibition (INH)” value (Cytochrome P450 2C19) was “Not Active” and the Cmax [2] was 500 ng/mL. For the same compound, the Activity [3] was “inactive”, the Cmax [4] was 1800 ng/mL and the pIC50 [5] was less than 4.30. For the same compound, the Activity [6] was “inactive”, the inhibition (Mus musculus) was “Dose-dependent effect” and the AUC(0-t) [7] was 25900 ng·h/mL. The half-life [8] was 4 h, the Activity [9] was “inactive” and the Activity [10] was “inactive”. The half-life [11] was 15.4 h, the Activity [12] was “inactive” and the “inhibition (INH)” value (Cytochrome P450 3A4 [13]) was “Not Active”. The Activity [14] was “inactive”, the “inhibition (INH)” value (Cytochrome P450 3A4 [15]) was “Not Active” and the Activity [16] was “inactive”. For the same compound, the Activity [17] was “inactive”, the Activity [18] was “inactive” and the half-life [19] was 12.2 h. The AUClast/dose [20] was 60 µM·h, the Activity [21] was “inactive” and the Activity (Homo sapiens) was “inactive”. For the same compound, the Activity [22] was “inactive”, the Vmax [23] was 0.5 pmol/min and the Activity [24] was “inactive”. The logD [25] was 1.2, the Activity [26] was “inactive” and the Activity [27] was “inactive”. The AUC(0-t) [28] was 7100 ng·h/mL, the Activity [29] was “inactive” and the half-life [30] was 12.5 h. For the same compound, the “inhibition (INH)” value (Cytochrome P450 2C8) was “Not Active”, the Activity [31] was “inactive” and the clearance [32] was 1.3 mL/min/kg.

Reference: ChEMBL document CHEMBL4311943, “3-[(1S,2S,3R)-2,3-Difluoro-1-hydroxy-7-methylsulfonylindan-4-yl]oxy-5-fluorobenzonitrile (PT2977), a Hypoxia-Inducible Factor 2α (HIF-2α) Inhibitor for the Treatment of Clear Cell Renal Cell Carcinoma” (J Med Chem, 2019)
